Measurements reported in patent EP1389624A1, “Phosphorous-containing cysteine and serine protease inhibitors” (CEPHALON, INC., priority 1995, dated 1997).
Where a name gives a salt, the structure may show the parent alone. Read-outs that look alike come from different tables or passages of the source.

Molecular target: T1, Calpain I (Homo sapiens, UniProt P07384)
T1 sequence (P07384 1-714): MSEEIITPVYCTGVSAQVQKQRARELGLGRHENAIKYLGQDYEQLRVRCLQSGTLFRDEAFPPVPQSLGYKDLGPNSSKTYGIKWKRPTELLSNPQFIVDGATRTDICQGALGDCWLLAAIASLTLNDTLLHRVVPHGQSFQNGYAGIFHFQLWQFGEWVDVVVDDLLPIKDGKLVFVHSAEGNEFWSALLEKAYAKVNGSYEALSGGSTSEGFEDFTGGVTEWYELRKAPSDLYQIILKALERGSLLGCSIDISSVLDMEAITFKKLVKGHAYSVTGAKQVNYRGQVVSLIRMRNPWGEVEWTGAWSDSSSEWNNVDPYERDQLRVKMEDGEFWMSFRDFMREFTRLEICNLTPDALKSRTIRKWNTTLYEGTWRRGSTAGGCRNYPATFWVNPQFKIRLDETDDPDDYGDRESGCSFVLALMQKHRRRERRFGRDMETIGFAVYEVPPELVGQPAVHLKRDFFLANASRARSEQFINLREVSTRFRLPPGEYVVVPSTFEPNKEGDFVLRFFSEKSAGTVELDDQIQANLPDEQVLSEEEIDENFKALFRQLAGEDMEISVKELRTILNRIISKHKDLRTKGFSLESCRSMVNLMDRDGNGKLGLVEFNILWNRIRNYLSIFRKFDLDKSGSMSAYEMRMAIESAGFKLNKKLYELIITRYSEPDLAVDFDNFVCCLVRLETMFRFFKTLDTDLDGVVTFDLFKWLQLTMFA
T1 sequence (P04632 1-268 partner): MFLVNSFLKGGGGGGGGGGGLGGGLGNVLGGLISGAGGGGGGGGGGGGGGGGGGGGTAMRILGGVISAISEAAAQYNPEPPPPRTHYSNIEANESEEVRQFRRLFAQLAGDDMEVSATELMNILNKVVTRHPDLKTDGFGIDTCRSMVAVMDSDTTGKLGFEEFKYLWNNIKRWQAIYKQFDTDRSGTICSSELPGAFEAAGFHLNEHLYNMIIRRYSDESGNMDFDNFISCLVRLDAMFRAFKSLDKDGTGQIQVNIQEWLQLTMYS
Test: Inhibition and rate of inactivation of cysteine protease (calpain I) activity, Succ-Leu-Tyr-MNA substrate hydrolysis
Conditions: for inhibition at 0.1 µM: read-out: % Inhib. @ 0.1 uM; for kinact/KI: read-out: kobs/I x 10^-3 M^-1s^-1

[1] = apparent second order rate constant of inactivation from reaction progress curves under pseudo-first order conditions, mean of three or more determinations

Description: To evaluate inhibitory activity, stock solutions (40 times concentrated) of each compound to be tested were prepared in 100% anhydrous DMSO and 5 µl of each inhibitor preparation were aliquoted into each of three wells of a 96 well plate. […] To start the reaction, 20 µl of 50 mM CaCl2 in assay buffer was added to all wells of the plate, excepting three, which were used as background signal baseline controls. Substrate hydrolysis was monitored every 5 minutes for a total of 30 minutes. Substrate hydrolysis in the absence of inhibitor was linear for up to 15 minutes.
Inhibition of calpain I activity was calculated as the percent decrease in the rate of substrate hydrolysis in the presence of inhibitor (vi) relative to the rate in its absence (vo). Comparison between vo and vi was made within the linear range for substrate hydrolysis. […] Apparent second order rate constants were determined from analysis of reaction progress curves under pseudo-first order conditions. Each determination represents the mean of three or more independent single cuvette analyses continually monitored via a Perkin-Elmer LS50B spectrofluorimeter.

| Compound | inhibition at 0.1 µM | kinact/KI | also measured |
| --- | --- | --- | --- |
| CC(C)C[C@H](NC(=O)OCc1ccccc1)C(=O)N[C@@H](Cc1ccccc1)C(=O)COP1(=O)OCC(OCc2ccccc2)CO1 (stereo partly shown) [Example 47] | 47% |  |  |
| CC(C)C[C@H](NC(=O)OCc1ccccc1)C(=O)N[C@@H](Cc1ccccc1)C(=O)COP(C)(C)=O [Example 52, (3S)-[3-[(N-Benzyloxycarbonyl-L-leucyl)amino]-2-oxo-4-phenylbutyl] dimethylphosphinate] |  | 6000 M⁻¹ s⁻¹ |  |
| CC(C)C[C@H](NC(=O)OCc1ccccc1)C(=O)N[C@@H](Cc1ccccc1)C(=O)COP(=O)(OCc1cccc(Oc2ccccc2)c1)OCc1cccc(Oc2ccccc2)c1 [Example 40, Bis(3-phenoxybenzyl) (3S)-[3-[(N-Benzyloxycarbonyl-L-leucyl)amino]-2-oxo-4-phenylbutyl] phosphate] | 53% |  |  |
| CCCCC(CC)COP(=O)(OCC(=O)[C@H](Cc1ccccc1)NC(=O)[C@H](CC(C)C)NC(=O)OCc1ccccc1)OCC(CC)CCCC (stereo partly drawn) [Example 44, Bis(2-ethylhexyl) (3S)-[3-[(N-Benzyloxycarbonyl-L-leucyl)amino]-2-oxo-4-phenylbutyl] phosphate] |  | 1000 M⁻¹ s⁻¹ |  |
| CCCCCP(=O)(CCCCC)OCC(=O)[C@H](Cc1ccccc1)NC(=O)[C@H](CC(C)C)NC(=O)OCc1ccccc1 [Example 53, (3S)-[3-[(N-Benzyloxycarbonyl-L-leucyl)amino]-2-oxo-4-phenylbutyl] dipentylphosphinate] | 19% |  |  |
| Cc1ccccc1P(=O)(OCC(=O)[C@H](Cc1ccccc1)NC(=O)[C@H](CC(C)C)NC(=O)OC(C)(C)C)c1ccccc1C [Example 56, (3S)-[3-[(N-t-Butoxycarbonyl-L-leucyl)amino]-2-oxo-4-phenylbutyl] bis(2-methylphenyl)phosphinate] |  | 22000 M⁻¹ s⁻¹ |  |
| CCP(=O)(OCC(=O)[C@H](Cc1ccccc1)NC(=O)[C@H](CC(C)C)NC(=O)OCc1ccccc1)c1ccccc1 (stereo partly drawn) [Example 60, (3S)-[3-[(N-Benzyloxycarbonyl-L-leucyl)amino]-2-oxo-4-phenylbutyl] (ethyl) (phenyl)phosphinate] | 51% |  | kobs/I x 10^-3 M^-1s^-1 [1]: 6 x 10^-3 M^-1s^-1 |
| CC(C)C[C@H](NC(=O)OCc1ccccc1)C(=O)N[C@@H](Cc1ccccc1)C(=O)COP(=O)(CCc1ccccc1)CCc1ccccc1 [Example 54, (3S)-[3-[(N-Benzyloxycarbonyl-L-leucyl)amino]-2-oxo-4-phenylbutyl] bis(2-phenylethyl)phosphinate] | 15% | 8000 M⁻¹ s⁻¹ |  |
| CCOP(=O)(C(=O)[C@H](CC(C)C)NC(=O)[C@H](CC(C)C)NC(=O)OCc1ccccc1)c1ccccc1 (stereo partly drawn) [Example 68, Ethyl N-benzyloxycarbonyl-L-leucyl-L-leucyl(phenyl)phosphinate] | 0% |  |  |
| CC(C)C[C@H](NC(=O)OCc1ccccc1)C(=O)N[C@@H](CC(C)C)C(=O)P(=O)(c1ccc(Cl)cc1)c1ccc(Cl)cc1 [Example 67, [Benzyloxycarbonyl-L-leucyl-L-leucyl]bis(4-chlorophenyl)phosphine oxide] | 4% |  |  |
| CC(C)C[C@H](NC(=O)OCc1ccccc1)C(=O)N[C@@H](Cc1ccccc1)C(=O)COP(=O)(OCCc1ccccc1)OCCc1ccccc1 [Example 46, Diphenethyl (3S)-[3-[(N-Benzyloxycarbonyl-L-leucyl)amino]-2-oxo-4-phenylbutyl] phosphate] | 99% | 380000 M⁻¹ s⁻¹ |  |
| (3S)-2-[3-[(N-Benzyloxycarbonyl-L-leucyl)amino]-2-oxo-4-phenylbutyl] 1H-phosphindoline 2-oxide [Example 62] |  |  | % Inhib. @ 0.1 uM (0.1 uM compound, percent decrease in rate of substrate hydrolysis relative to no inhibitor): 34% |
| CC(C)C[C@H](NC(=O)OCc1ccccc1)C(=O)N[C@@H](Cc1ccccc1)C(=O)COP(=O)(OCc1ccccc1)OCc1ccccc1 [Example 34, Dibenzyl (3S)-[3-[(N-Benzyloxycarbonyl-L-leucyl)amino]-2-oxo-4-phenylbutyl] phosphate] |  | 100000 M⁻¹ s⁻¹ |  |
| COc1ccc(P(=O)(OCC(=O)[C@H](Cc2ccccc2)NC(=O)[C@H](CC(C)C)NC(=O)OCc2ccccc2)c2ccc(OC)cc2)cc1 [Example 57, (3S)-[3-[(N-Benzyloxycarbonyl-L-leucyl)amino]-2-oxo-4-phenylbutyl] bis(4-methoxyphenyl)phosphinate] | 85% | 85000 M⁻¹ s⁻¹ |  |
| CC(C)C[C@H](NC(=O)OC(C)(C)C)C(=O)N[C@@H](Cc1ccccc1)C(=O)COP(=O)(O)O [Example 41, Dihydrogen (3S)-[3-[(N-t-Butoxycarbonyl-L-leucyl)amino]-2-oxo-4-phenylbutyl] phosphate] | 7% | < 20000 M⁻¹ s⁻¹ |  |
| CCOP(=O)(CC(=O)[C@H](Cc1ccccc1)NC(=O)[C@H](CC(C)C)NC(=O)OCc1ccccc1)c1ccccc1 (stereo partly drawn) [Example 64, Ethyl (3S)-[3-[(N-benzyloxycarbonyl-L-leucyl)amino]-2-oxo-4-phenylbutyl] (phenyl)phosphinate] | 26% |  | kobs/I x 10^-3 M^-1s^-1 [1]: 4 x 10^-3 M^-1s^-1 |
| CC(C)C[C@H](NC(=O)OCc1ccccc1)C(=O)N[C@@H](Cc1ccccc1)C(=O)COP(=O)(OCCN1CCOCC1)c1ccccc1 (stereo partly drawn) [Example 50, 2-(Morpholin-4-yl)ethyl (3S)-[3-[(N-benzyloxycarbonyl-L-leucyl)amino]-2-oxo-4-phenylbutyl] phenylphosphonate hydrochloride] |  | 70000 M⁻¹ s⁻¹ |  |
| CCCCOP(=O)(OCCCC)C(=O)[C@H](CC(C)C)NC(=O)[C@H](CC(C)C)NC(=O)OCc1ccccc1 [Example 66, Dibutyl N-Benzyloxycarbonyl-L-leucyl-L-leucylphosphonate] | 0% |  |  |
| (3S)-[3-[(N-Benzyloxycarbonyl-L-leucyl)amino]-2-oxo-4-phenylbutyl] [3-(morpholin-4-yl)propyl](phenyl)phosphinate [Example 61] |  |  | kobs/I x 10^-3 M^-1s^-1 [1]: 17 x 10^-3 M^-1s^-1 |
| CC(C)CC(NC(=O)C12OC3COC(C)(C)OC3C1OC(C)(C)O2)C(=O)NC(Cc1ccccc1)C(=O)COP(=O)(OCc1ccccc1)OCc1ccccc1 [Example 37, Dibenzyl (3S)-[3-[(N-diisopropylidine-2-keto-L-gulonyl-L-leucyl)amino)-2-oxo-4-phenylbutyl] phosphate] |  |  | kobs/I x 10^-3 M^-1s^-1: 113 x 10^-3 M^-1s^-1 |
| CC(C)C[C@H](NC(=O)OC(C)(C)C)C(=O)N[C@@H](Cc1ccccc1)C(=O)COP(=O)(OCCC1CCCCC1)OCCC1CCCCC1 [Example 45, Bis(2-cyclohexylethyl) (3S)-[3-[(N-t-Butoxycarbonyl-L-leucyl)amino]-2-oxo-4-phenylbutyl] phosphate] | 28% |  |  |
| CC(C)C[C@H](NC(=O)OCc1ccccc1)C(=O)N[C@@H](Cc1ccccc1)C(=O)COP1(=O)CC=CC1 [Example 63, (3S)-1-[[3-[(N-Benzyloxycarbonyl-L-leucyl)amino]-2-oxo-4-phenylbutyl]oxy]phosphol-3-ene 1-oxide] | 22% |  |  |
| CC(C)C[C@H](NC(=O)OC(C)(C)C)C(=O)N[C@@H](Cc1ccccc1)C(=O)COP(=O)(OCc1ccccc1)OCc1ccccc1 [Example 35, Dibenzyl (3S)-[3-[(N-t-Butoxycarbonyl-L-leucyl)amino]-2-oxo-4-phenylbutyl] phosphate] | 100% | 242000 M⁻¹ s⁻¹ |  |
| COP(=O)(OC)OCC(=O)[C@H](Cc1ccccc1)NC(=O)[C@H](CC(C)C)NC(=O)OCc1ccccc1 [Example 42, Dimethyl (3S)-[3-[(N-Benzyloxycarbonyl-L-leucyl)amino]-2-oxo-4-phenylbutyl] phosphate] |  | 20000 M⁻¹ s⁻¹ |  |
